In US8815882B2, “Pyrazole aminopyrimidine derivatives as LRRK2 modulators” (Genentech, Inc., priority 2010, dated 2014):

Target: T1, LRRK2 (Homo sapiens, UniProt Q5S007, G2019S)
T1 construct: purchased Invitrogen PV4882 (lot 567054A)
Assay: In Vitro LRRK2 Assay (LabChip 3000, fluorescently-labeled peptide substrate, ATP)
Format: biochemical
Conditions: Table 9; LRRK2 Ki (micromolar); read-out: LRRK2 Ki (KI)
Method in brief: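 LRRK2, fluorescent peptide substrate (diluted to 4 μM before mixing), ATP and compound were incubated 2 h in the dark, then stopped. Phosphorylated and unphosphorylated peptide were separated by capillary electrophoresis and quantified by fluorescence. Ki was fitted with a tight-binding equation including enzyme concentration, S and Km; IC50 or percent inhibition were also reported.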

T1 sequence (Q5S007 whole entry G2019S): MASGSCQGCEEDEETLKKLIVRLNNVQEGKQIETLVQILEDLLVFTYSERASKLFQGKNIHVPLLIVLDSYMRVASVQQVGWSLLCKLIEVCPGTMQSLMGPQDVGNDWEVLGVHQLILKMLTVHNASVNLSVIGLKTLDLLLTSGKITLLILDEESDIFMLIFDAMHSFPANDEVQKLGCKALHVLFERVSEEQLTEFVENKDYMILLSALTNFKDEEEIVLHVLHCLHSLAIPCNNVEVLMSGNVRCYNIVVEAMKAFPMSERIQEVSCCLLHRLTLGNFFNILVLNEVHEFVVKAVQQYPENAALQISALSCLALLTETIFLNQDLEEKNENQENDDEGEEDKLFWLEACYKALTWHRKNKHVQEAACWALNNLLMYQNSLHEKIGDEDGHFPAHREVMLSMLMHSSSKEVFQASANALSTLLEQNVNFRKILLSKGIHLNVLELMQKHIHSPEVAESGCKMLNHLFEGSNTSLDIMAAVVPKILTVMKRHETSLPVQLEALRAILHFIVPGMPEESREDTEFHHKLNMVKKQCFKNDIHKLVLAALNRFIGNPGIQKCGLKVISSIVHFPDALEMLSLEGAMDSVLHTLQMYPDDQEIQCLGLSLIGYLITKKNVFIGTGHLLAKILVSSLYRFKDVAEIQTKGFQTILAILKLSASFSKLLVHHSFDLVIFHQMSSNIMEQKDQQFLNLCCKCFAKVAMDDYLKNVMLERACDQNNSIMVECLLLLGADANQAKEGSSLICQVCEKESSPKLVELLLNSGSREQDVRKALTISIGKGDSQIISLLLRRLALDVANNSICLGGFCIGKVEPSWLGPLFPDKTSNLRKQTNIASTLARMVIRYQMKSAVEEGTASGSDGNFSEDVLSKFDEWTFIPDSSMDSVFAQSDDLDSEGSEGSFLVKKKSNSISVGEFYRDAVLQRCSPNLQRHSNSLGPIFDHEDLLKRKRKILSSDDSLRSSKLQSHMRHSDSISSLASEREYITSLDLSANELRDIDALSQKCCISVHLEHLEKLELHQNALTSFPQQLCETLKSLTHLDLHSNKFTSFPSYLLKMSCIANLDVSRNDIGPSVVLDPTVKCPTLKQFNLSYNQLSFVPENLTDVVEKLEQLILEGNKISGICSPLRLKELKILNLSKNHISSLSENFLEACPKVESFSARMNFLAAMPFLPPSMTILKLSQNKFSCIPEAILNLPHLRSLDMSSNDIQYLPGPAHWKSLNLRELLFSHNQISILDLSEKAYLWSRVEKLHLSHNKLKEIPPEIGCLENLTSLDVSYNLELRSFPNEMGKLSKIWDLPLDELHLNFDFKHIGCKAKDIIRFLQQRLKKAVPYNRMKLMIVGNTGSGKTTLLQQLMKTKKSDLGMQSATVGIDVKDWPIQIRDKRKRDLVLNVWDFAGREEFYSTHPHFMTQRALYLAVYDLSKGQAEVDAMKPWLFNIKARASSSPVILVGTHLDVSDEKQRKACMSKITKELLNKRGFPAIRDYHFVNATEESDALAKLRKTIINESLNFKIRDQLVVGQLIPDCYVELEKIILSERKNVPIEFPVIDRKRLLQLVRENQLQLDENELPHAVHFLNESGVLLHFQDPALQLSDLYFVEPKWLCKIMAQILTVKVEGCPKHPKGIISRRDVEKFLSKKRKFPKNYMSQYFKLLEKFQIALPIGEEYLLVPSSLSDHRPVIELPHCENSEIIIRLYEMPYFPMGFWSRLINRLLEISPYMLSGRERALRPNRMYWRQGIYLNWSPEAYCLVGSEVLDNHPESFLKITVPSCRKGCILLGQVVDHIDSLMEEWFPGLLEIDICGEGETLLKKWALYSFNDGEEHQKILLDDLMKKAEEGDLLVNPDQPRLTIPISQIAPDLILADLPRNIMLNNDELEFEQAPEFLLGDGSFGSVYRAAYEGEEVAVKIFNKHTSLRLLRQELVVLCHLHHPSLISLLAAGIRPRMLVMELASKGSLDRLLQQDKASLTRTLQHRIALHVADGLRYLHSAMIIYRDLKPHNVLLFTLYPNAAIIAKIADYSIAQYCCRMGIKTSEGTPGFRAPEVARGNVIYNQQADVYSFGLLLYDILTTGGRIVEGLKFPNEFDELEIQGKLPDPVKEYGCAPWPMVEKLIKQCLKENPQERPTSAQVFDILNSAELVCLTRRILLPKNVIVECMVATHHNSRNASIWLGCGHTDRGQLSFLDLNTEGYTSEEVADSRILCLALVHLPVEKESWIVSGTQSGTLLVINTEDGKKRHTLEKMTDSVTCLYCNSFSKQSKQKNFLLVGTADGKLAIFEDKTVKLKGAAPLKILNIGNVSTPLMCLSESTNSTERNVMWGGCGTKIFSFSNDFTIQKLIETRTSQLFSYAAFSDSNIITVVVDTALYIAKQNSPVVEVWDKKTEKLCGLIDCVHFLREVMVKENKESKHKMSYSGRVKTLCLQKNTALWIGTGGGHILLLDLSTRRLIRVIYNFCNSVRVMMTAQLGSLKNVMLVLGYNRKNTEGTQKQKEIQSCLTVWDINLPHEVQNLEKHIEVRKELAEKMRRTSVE

Ki [nM]	Structure (SMILES)
29	CNc1nc(Nc2cn(C)nc2C)ncc1C#N [Example 350, 2-(1,3-Dimethyl-1H-pyrazol-4-ylamino)-4-methylamino-pyrimidine-5-carbonitrile]
9.7	CCn1ncc(Nc2ncc(C#N)c(NC)n2)c1C [Example 351, 2-(1-ethyl-5-methyl-1H-pyrazol-4-ylamino)-4-(methylamino) pyrimidine-5-carbonitrile]
48	CNc1nc(Nc2cn(C(C)C)nc2C)ncc1C#N [Example 352, 2-(1-isopropyl-3-methyl-1H-pyrazol-4-ylamino)-4-(methylamino) pyrimidine-5-carbonitrile]
36	CCn1cc(Nc2ncc(C#N)c(NC)n2)c(C)n1 [Example 353, 2-(1-ethyl-3-methyl-1H-pyrazol-4-ylamino)-4-(methylamino) pyrimidine-5-carbonitrile]
120	CNc1nc(Nc2cn(-c3ccccc3)nc2C)ncc1C#N [Example 354, 2-(3-methyl-1-phenyl-1H-pyrazol-4-ylamino)-4-(methylamino) pyrimidine-5-carbonitrile]
299	CNc1nc(Nc2cn(C3CCN(CC(F)(F)F)CC3)nc2C)ncc1C#N [Example 355, 2-(3-methyl-1-(1-(2,2,2-trifluoroethyl)piperidin-4-yl)-1H-pyrazol-4-ylamino)-4-(methylamino) pyrimidine-5-carbonitrile]
22.5	CNc1nc(Nc2cnn(C3CCN(CC(F)(F)F)CC3)c2C)ncc1C#N [Example 356, 2-(5-methyl-1-(1-(2,2,2-trifluoroethyl)piperidin-4-yl)-1H-pyrazol-4-ylamino)-4-(methylamino) pyrimidine-5-carbonitrile]
32	CNc1nc(Nc2cnn(CC(F)(F)F)c2C)ncc1C#N [Example 358, 2-(5-methyl-1-(2,2,2-trifluoroethyl)-1H-pyrazol-4-ylamino)-4-(methylamino) pyrimidine-5-carbonitrile]
53	CNc1nc(Nc2cn(CC(F)(F)F)nc2C)ncc1C#N [Example 359, 2-(3-methyl-1-(2,2,2-trifluoroethyl)-1H-pyrazol-4-ylamino)-4-(methylamino) pyrimidine-5-carbonitrile]
1.3	CNc1nc(Nc2cnn(-c3ccccc3)c2C)ncc1C#N [Example 360, 2-(5-methyl-1-phenyl-1H-pyrazol-4-ylamino)-4-(methylamino) pyrimidine-5-carbonitrile]
8.7	CNc1nc(Nc2cnn(C3CCOCC3)c2C)ncc1C#N [Example 361, 2-(5-methyl-1-(tetrahydro-2H-pyran-4-yl)-1H-pyrazol-4-ylamino)-4-(methylamino) pyrimidine-5-carbonitrile]

Same assay, conditions: read-out: LRRK2 Ki (KI), Table 8

Ki [nM]	Structure (SMILES)
4.9	CCNc1nc(Nc2cn(C3CCN(CC4OCCO4)C3)nc2C)ncc1C(F)(F)F (stereo not drawn) [Example 322, N2-[1-(1-[1,3]Dioxolan-2-ylmethyl-pyrrolidin-3-yl)-3-methyl-1H-pyrazol-4-yl]-N4-ethyl-5-trifluoromethyl-pyrimidine-2,4-diamine]
2.2	CNc1nc(Nc2cnn(Cc3ccncn3)c2C)ncc1C(F)(F)F [Example 323, N4-Methyl-N2-(5-methyl-1-pyrimidin-4-ylmethyl-1H-pyrazol-4-yl)-5-trifluoromethyl-pyrimidine-2,4-diamine]
0.6	CNc1nc(Nc2cnn(Cc3ccn(C)n3)c2C)ncc1C(F)(F)F [Example 324, N4-Methyl-N2-[5-methyl-1-(1-methyl-1H-pyrazol-3-ylmethyl)-1H-pyrazol-4-yl]-5-trifluoromethyl-pyrimidine-2,4-diamine]
3.8	CNc1nc(Nc2cn(Cc3ccn(C)n3)nc2C)ncc1C(F)(F)F [Example 325, N4-Methyl-N2-[3-methyl-1-(1-methyl-1H-pyrazol-3-ylmethyl)-1H-pyrazol-4-yl]-5-trifluoromethyl-pyrimidine-2,4-diamine]
8.2	CNc1nc(Nc2cn(CC(C)(C)C#N)nc2Cl)ncc1C(F)(F)F [Example 326, 3-[3-Chloro-4-(4-methylamino-5-trifluoromethyl-pyrimidin-2-ylamino)-pyrazol-1-yl]-2,2-dimethyl-propionitrile]
0.5	CCNc1nc(Nc2cn(C(C)(C)c3nnc[nH]3)nc2C)ncc1C(F)(F)F [Example 327, N4-Ethyl-N2-{3-methyl-1-[1-methyl-1-(4H-[1,2,4]triazol-3-yl)-ethyl]-1H-pyrazol-4-yl}-5-trifluoromethyl-pyrimidine-2,4-diamine]
0.4	CCNc1nc(Nc2cnn(C3CCN(CC4OCCO4)C3)c2C)ncc1C(F)(F)F (stereo not drawn) [Example 328, N2-[1-(1-[1,3]Dioxolan-2-ylmethyl-pyrrolidin-3-yl)-5-methyl-1H-pyrazol-4-yl]-N4-ethyl-5-trifluoromethyl-pyrimidine-2,4-diamine]
5.2	CNc1nc(Nc2cn(Cc3ccncn3)nc2C)ncc1C(F)(F)F [Example 329, N4-Methyl-N2-(3-methyl-1-pyrimidin-4-ylmethyl-1H-pyrazol-4-yl)-5-trifluoromethyl-pyrimidine-2,4-diamine]
24.5	CNc1nc(Nc2cnn(C)c2CF)ncc1C(F)(F)F [Example 330, N2-(5-Fluoromethyl-1-methyl-1H-pyrazol-4-yl)-N4-methyl-5-trifluoromethyl-pyrimidine-2,4-diamine]
0.8	CCNc1nc(Nc2cn(C(C)(C)c3nnc(C)[nH]3)nc2C)ncc1C(F)(F)F [Example 331, N4-Ethyl-N2-{3-methyl-1-[1-methyl-1-(5-methyl-4H-[1,2,4]triazol-3-yl)-ethyl]-1H-pyrazol-4-yl}-5-trifluoromethyl-pyrimidine-2,4-diamine]
2.3	CNc1nc(Nc2cn(C(C)(C)c3nnc[nH]3)nc2C)ncc1C(F)(F)F [Example 332, N4-Methyl-N2-{3-methyl-1-[1-methyl-1-(4H-[1,2,4]triazol-3-yl)-ethyl]-1H-pyrazol-4-yl}-5-trifluoromethyl-pyrimidine-2,4-diamine]
0.7	CCNc1nc(Nc2cn(C3CCNCC3F)nc2C)ncc1C(F)(F)F (stereo not drawn) [Example 333, N4-Ethyl-N2-[1-(3-fluoro-piperidin-4-yl)-3-methyl-1H-pyrazol-4-yl]-5-trifluoromethyl-pyrimidine-2,4-diamine]
6.3	CNc1nc(Nc2cnn(C3CCCC3O)c2C)ncc1C(F)(F)F (stereo not drawn) [Example 334, 2-[5-Methyl-4-(4-methylamino-5-trifluoromethyl-pyrimidin-2-ylamino)-pyrazol-1-yl]-cyclopentanol]
3.3	CNc1nc(Nc2cn(C3CCCC3O)nc2C)ncc1C(F)(F)F (stereo not drawn) [Example 335, 2-[3-Methyl-4-(4-methylamino-5-trifluoromethyl-pyrimidin-2-ylamino)-pyrazol-1-yl]-cyclopentanol]
1.2	CCNc1nc(Nc2cn(C(C)(C)c3nnc(C)o3)nc2C)ncc1C(F)(F)F [Example 336, N4-ethyl-N2-(3-methyl-1-(2-(5-methyl-1,3,4-oxadiazol-2-yl)propan-2-yl)-1H-pyrazol-4-yl)-5-(trifluorometliyl) pyrimidine-2,4-diamine]
7.6	CCNc1nc(Nc2cn(C(C)(C)c3nncn3C)nc2C)ncc1C(F)(F)F [Example 337, N4-ethyl-N2-(3-methyl-1-(2-(4-methyl-4H-1,2,4-triazol-3-yl)propan-2-yl)-1H-pyrazol-4-yl)-5-(trifluoromethyl) pyrimidine-2,4-diamine]
0.3	CCNc1nc(Nc2cn(C(C)(C)c3ncn(C)n3)nc2C)ncc1C(F)(F)F [Example 338, N4-ethyl-N2-(3-methyl-1-(2-(1-methyl-1H-1,2,4-triazol-3-yl)propan-2-yl)-1H-pyrazol-4-yl)-5-(trifluoromethyl) pyrimidine-2,4-diamine]
11.7	CNc1nc(Nc2cn(C(C)(C)c3nnc(C)o3)nc2C)ncc1C(F)(F)F [Example 339, N4-methyl-N2-(3-methyl-1-(2-(5-methyl-1,3,4-oxadiazol-2-yl)propan-2-yl)-1H-pyrazol-4-yl)-5-(trifluoromethyl) pyrimidine-2,4-diamine]
0.3	CNc1nc(Nc2cn(C(C)(C)c3cnn(C)c3)nc2C)ncc1C(F)(F)F [Example 340, N4-methyl-N2-(3-methyl-1-(2-(1-methyl-1H-pyrazol-4-yl)propan-2-yl)-1H-pyrazol-4-yl)-5-(trifluoromethyl) pyrimidine-2,4-diamine]
6.1	CNc1nc(Nc2cnn(C(C)(C)c3cnn(C)c3)c2C)ncc1C(F)(F)F [Example 341, N4-methyl-N2-(5-methyl-1-(2-(1-methyl-1H-pyrazol-4-yl)propan-2-yl)-1H-pyrazol-4-yl)-5-(trifluoromethyl) pyrimidine-2,4-diamine]
21.7	CCNc1nc(Nc2cn(C(C)(C)c3ccn(C)n3)nc2C)ncc1C(F)(F)F [Example 342, N4-ethyl-N2-(3-methyl-1-(2-(1-methyl-1H-pyrazol-3-yl)propan-2-yl)-1H-pyrazol-4-yl)-5-(trifluoromethyl) pyrimidine-2,4-diamine]
0.3	CCNc1nc(Nc2cn(C(C)(C)c3ccnn3C)nc2C)ncc1C(F)(F)F [Example 343, N4-ethyl-N2-(3-methyl-1-(2-(1-methyl-1H-pyrazol-5-yl)propan-2-yl)-1H-pyrazol-4-yl)-5-(trifluoromethyl) pyrimidine-2,4-diamine]
1.4	CNc1nc(Nc2cn(C(C)(C)c3ccnn3C)nc2C)ncc1C(F)(F)F [Example 344, N4-methyl-N2-(3-methyl-1-(2-(1-methyl-1H-pyrazol-5-yl)propan-2-yl)-1H-pyrazol-4-yl)-5-(trifluoromethyl) pyrimidine-2,4-diamine]
115	CNc1nc(Nc2cn(C(C)(C)c3ccn(C)n3)nc2C)ncc1C(F)(F)F [Example 345, N4-methyl-N2-(3-methyl-1-(2-(1-methyl-1H-pyrazol-3-yl)propan-2-yl)-1H-pyrazol-4-yl)-5-(trifluoromethyl) pyrimidine-2,4-diamine]

Same assay, conditions: read-out: LRRK2 Ki given in the example

Ki [nM]	Structure (SMILES)
25	CNc1nc(Nc2cnn(C)c2C)ncc1C#N [Example 349, 2-(1,5-Dimethyl-1H-pyrazol-4-ylamino)-4-(methylamino)pyrimidine-5-carbonitrile]
